According to patent publication US20260076955A1, “JOINT CAVITY DRUG ADMINISTRATION METHOD, AND USE THEREOF” (TENNOR THERAPEUTICS (SUZHOU) LIMITED, priority 2023, published 2026):
Converted amounts (≈) assume the structure as drawn. Like-named read-outs stand apart in the source and are kept apart here. Marks after values point to notes of the source that are not given here.

What was measured:
[1] = test system: methicillin-sensitive Staphylococcus aureus (MSSA, ATCC6538 strain); experiment: Mouse metal implant joint infection model, colony counts from pin and femur; format: in vivo; settings: for Femur Mean Log10 CFU / Log10 CFU Reduction vs. day 14 control, Femur / Log10 CFU Reduction vs. day 14 control, Pin / Pin Mean Log10 CFU: day 14
Text: In this example, female mice aged 8-10 weeks were used and randomly grouped. Before the start of drug administration treatment, each mouse underwent a surgery involving the placement of a metal implant into the femoral-tibial joint and an intraarticular inoculation of methicillin-sensitive Staphylococcus aureus (MSSA, ATCC6538 strain) at the surgical site. Therapeutic agents were formulated as follows: • (1) compound of formula (I): when used as a therapeutic agent for intraarticular injection (IA), the compound was dissolved in 5% dextrose in water (D5W) and formulated to the required concentrations; when used as a therapeutic agent for intraperitoneal injection (IP), the compound was dissolved in a solvent system of ethanol/NaHCO3/6% Cremophor and formulated to the required concentrations; (2) vancomycin: the drug was dissolved in sterile water for injection (WFI) and formulated to the required concentration to obtain a therapeutic agent for intraarticular injection. [table] Samples were obtained from the surgical and inoculation sites of the mice, and colony counts are performed on the agar plates. The number of colonies converted to CFU/tissue by multiplying the number of colonies by the volume of the homogenate spotted and the dilution at which the colonies were counted (5-50 colonies/spot). The resulting value was expressed as log10 CFU/tissue and used to calculate the mean and standard deviations (the results are shown in Table 1).

[2] = test system: methicillin-resistant Staphylococcus aureus (MRSA, ATCC43300 strain); experiment: Rat PJI model: CFU count, scanning electron microscopy of prosthesis, H&E pathology of synovium; format: in vivo; settings: for Tissue bacterial load in bone tissue / Tissue bacterial load in prosthesis / Tissue bacterial load in soft tissue: QD × 14 days, sample D 21
Text: In this example, rats aged about 17 weeks were used. Before the start of drug administration treatment, each rat underwent an aseptic surgery to insert an artificial prosthesis into the knee joint, followed by an intraarticular inoculation of methicillin-resistant Staphylococcus aureus (MRSA, ATCC43300 strain) at the surgical site.

MRSA ATCC43300 strain = experiment: MIC (minimum inhibitory concentration) determination; format: cell-based; settings: Staphylococcus aureus, read-out: MIC (minimum inhibitory concentration)
[3] = Pharmacokinetics after single intraarticular injection in beagle dogs (plasma and synovial fluid); format: in vivo; settings: both sexes, dog, single intraarticular injection 3 mg/kg; for AUC(0-t) / Cmax / Tmax / half-life: mean
Method: In this example, an experiment with an animal model of male and female beagle dogs was used to evaluate the pharmacokinetic behavior after a single intraarticular injection of the compound of formula (I) in the knee. A total of 6 beagle dogs (3 males and 3 females) were used for this experiment. The experimental animals received a single intraarticular injection of 3 mg/kg of the compound of formula (I) in the left joint, and a single intraarticular injection of 0.1 mL/kg of the vehicle (injection solution of 5% dextrose in water) in the right joint. From the experimental animals, plasma samples were collected before administration (0 hour) and at 0.25 hour (15 minutes), 3 hours, 9 hours, 12 hours, 24 hours, 36 hours, 48 hours, and 72 hours after administration, and left knee synovial fluid samples were collected at 12 hours, 36 hours, and 60 hours after administration. The concentrations of the compound of formula (I) in the plasma and synovial fluid samples were determined using high-performance liquid chromatography-tandem mass spectrometry (LC-MS/MS).

[4] = test system: Staphylococcus epidermidis; experiment: Biofilm bactericidal activity MBBC90; format: cell-based; settings: against Staphylococcus epidermidis
[5] = test system: Staphylococcus epidermidis; experiment: MIC90; format: cell-based; settings: against Staphylococcus epidermidis
Staphylococcus aureus [6] = experiment: Biofilm bactericidal activity MBBC90; format: cell-based; settings: against Staphylococcus aureus
Staphylococcus aureus [7] = experiment: MIC90; format: cell-based; settings: against Staphylococcus aureus
[8] = 45 mg/kg, 25 μL IA, QD × 7 days
[9] = 5 mg/kg, 0.2 mL IP, BID × 7 days
[10] = 15 mg/kg, 0.2 mL IP, BID × 7 days
[11] = 15 mg/kg, 25 μL IA, QD × 7 days
[12] = 45 mg/kg, 0.2 mL IP, BID × 7 days
[13] = intraarticular administration, all IA dose groups (5-45 mg/kg)
[14] = group T2.5, 2.5 mg/kg intraarticular
[15] = group T5, 5 mg/kg intraarticular
[16] = group T10, 10 mg/kg intraarticular

CN[C@H](CC(C)C)C(=O)N[C@H]1C(=O)N[C@@H](CC(N)=O)C(=O)N[C@H]2C(=O)N[C@H]3C(=O)N[C@H](C(=O)N[C@H](C(=O)O)c4cc(O)cc(O)c4-c4cc3ccc4O)[C@H](O)c3ccc(c(Cl)c3)Oc3cc2cc(c3O[C@@H]2O[C@H](CO)[C@@H](O)[C@H](O)[C@H]2O[C@H]2C[C@](C)(N)[C@H](O)[C@H](C)O2)Oc2ccc(cc2Cl)[C@H]1O [Vancomycin, reference compound]
Femur Mean Log10 CFU [1, 8]: 6.08 Log10 CFU | Log10 CFU Reduction vs. day 14 control, Femur [1, 8]: −0.80 Log10 CFU | Log10 CFU Reduction vs. day 14 control, Pin [1, 8]: −1.28 Log10 CFU | Pin Mean Log10 CFU [1, 8]: 3.49 Log10 CFU | Tissue bacterial load in bone tissue ([2]; group Van, 44 mg/kg): 11733 ± 8583 CFU | Tissue bacterial load in prosthesis ([2]; group Van, 44 mg/kg): 1783 ± 1136 CFU | Tissue bacterial load in soft tissue ([2]; group Van, 44 mg/kg): 1050 ± 1174 CFU | pathological H&E staining of the synovial soft tissue (FIG. 2B) ([2]; vancomycin group, 44 mg/kg): a significant reduction in inflammatory cell infiltration in the synovium | scanning electron microscopy observation of prosthesis (FIG. 2A) ([2]; vancomycin treatment group, 44 mg/kg): a relatively large number of bacteria still remained | MIC (MRSA ATCC43300 strain): 0.5 µg/mL (≈ 0.345 µM)

CO[C@H]1/C=C/O[C@@]2(C)Oc3c(C)c(O)c4c(O)c(c(/C=N/N5CCC(N(C)C6([C@@H]7CCN(c8c(F)cn9c(=O)c(C(=O)O)cc(C%10CC%10)c9c8C)C7)CC6)CC5)c(O)c4c3C2=O)NC(=O)/C(C)=C\C=C\[C@H](C)[C@H](O)[C@@H](C)[C@@H](O)[C@@H](C)[C@H](OC(C)=O)[C@@H]1C [compound of formula (I)]
Femur Mean Log10 CFU [1, 9]: 6.51 Log10 CFU | Log10 CFU Reduction vs. day 14 control, Femur [1, 9]: −0.37 Log10 CFU | Log10 CFU Reduction vs. day 14 control, Pin [1, 9]: −0.51 Log10 CFU | Pin Mean Log10 CFU [1, 9]: 4.26 Log10 CFU | Femur Mean Log10 CFU ([1]; 5 mg/kg, 25 μL IA, QD × 7 days): 5.17 Log10 CFU | Log10 CFU Reduction vs. day 14 control, Femur ([1]; 5 mg/kg, 25 μL IA, QD × 7 days): −1.71 Log10 CFU | Log10 CFU Reduction vs. day 14 control, Pin ([1]; 5 mg/kg, 25 μL IA, QD × 7 days): −2.50 Log10 CFU | Pin Mean Log10 CFU ([1]; 5 mg/kg, 25 μL IA, QD × 7 days): 2.27 Log10 CFU | Femur Mean Log10 CFU [1, 10]: 5.33 Log10 CFU | Log10 CFU Reduction vs. day 14 control, Femur [1, 10]: −1.55 Log10 CFU | Log10 CFU Reduction vs. day 14 control, Pin [1, 10]: −2.25 Log10 CFU | Pin Mean Log10 CFU [1, 10]: 2.52 Log10 CFU | Femur Mean Log10 CFU [1, 11]: 3.76 Log10 CFU | Log10 CFU Reduction vs. day 14 control, Femur [1, 11]: −3.12 Log10 CFU | Log10 CFU Reduction vs. day 14 control, Pin [1, 11]: −2.54 Log10 CFU | Pin Mean Log10 CFU [1, 11]: 2.23 Log10 CFU | Femur Mean Log10 CFU [1, 12]: 3.42 Log10 CFU | Log10 CFU Reduction vs. day 14 control, Femur [1, 12]: −3.46 Log10 CFU | Log10 CFU Reduction vs. day 14 control, Pin [1, 12]: −2.72 Log10 CFU | Pin Mean Log10 CFU [1, 12]: 2.05 Log10 CFU | Femur Mean Log10 CFU [1, 8]: 3.46 Log10 CFU | Log10 CFU Reduction vs. day 14 control, Femur [1, 8]: −3.42 Log10 CFU | Log10 CFU Reduction vs. day 14 control, Pin [1, 8]: −2.72 Log10 CFU | Pin Mean Log10 CFU [1, 8]: 2.05 Log10 CFU | mean femur colony counts lower than those in the untreated control animals [1, 13]: 1.71-3.42 log10 CFU | mean pin colony counts lower than those in the untreated control animals [1, 13]: 2.5-2.72 logo CFU | Tissue bacterial load in bone tissue [2, 14]: 7083 ± 6280 CFU | Tissue bacterial load in prosthesis [2, 14]: 550 ± 207 CFU | Tissue bacterial load in soft tissue [2, 14]: 9717 ± 1387 CFU | Tissue bacterial load in bone tissue [2, 15]: 1383 ± 1068 CFU | Tissue bacterial load in prosthesis [2, 15]: 0 *** CFU | Tissue bacterial load in soft tissue [2, 15]: 5433 ± 3194 CFU | Tissue bacterial load in bone tissue [2, 16]: 2400 ± 1655 CFU | Tissue bacterial load in prosthesis [2, 16]: 0 *** CFU | Tissue bacterial load in soft tissue [2, 16]: 1517 ± 1011 CFU | pathological H&E staining of the synovial soft tissue (FIG. 2B) ([2]; high-dose group, 10 mg/kg): a significant reduction in inflammatory cell infiltration in the synovium | scanning electron microscopy observation of prosthesis (FIG. 2A) ([2]; high-dose group, 10 mg/kg): individual cocci embedded therein | scanning electron microscopy observation of prosthesis (FIG. 2A) ([2]; low-dose group, 2.5 mg/kg): the formation of a relatively large number of colonies could still be observed | scanning electron microscopy observation of prosthesis (FIG. 2A) ([2]; medium-dose group, 5 mg/kg): individual bacteria still present | AUC(0-t) ([3]; plasma): 20.8 ± 7.15 µg·h/mL | Cmax ([3]; plasma): 736 ± 247 ng/mL | Tmax ([3]; plasma): 24 h | half-life ([3]; plasma): 12 h | AUC(0-t) ([3]; synovial fluid): 1000 ± 1050 µg·h/mL | Cmax ([3]; synovial fluid): 77400 ± 81900 ng/mL | Tmax ([3]; synovial fluid): 12 h | half-life ([3]; synovial fluid): 6.81 h | Kp ([3]; synovial fluid/plasma, read-out: AUC ratio = AUC0-last in synovial fluid/AUC0-last in plasma): 46.1 | biofilm bactericidal activity MBBC90 [4]: 250 ng/mL | MIC90 [5]: 0.008 µg/mL | MIC (MRSA ATCC43300 strain; MRSA ATCC43300 strain): 0.032 µg/mL | biofilm bactericidal activity MBBC90 (Staphylococcus aureus [6]): 2000 ng/mL | MIC90 (Staphylococcus aureus [7]): 0.015 µg/mL
